These sequences were tested on PABPC1 PABC. Conditions: DMS-BM library, bait PABPC1 PABC, prey ATXN2, peptide TLNPNAKEFNPRSFSQ; N = wild type, row aa = residue at this position.
Type: binding, human

| Sequence | DMS-derived PSSM value, position N3 | DMS-derived PSSM value, position N5 | DMS-derived PSSM value, position N10 |
| --- | --- | --- | --- |
| TLNPNAKEFNPRSFSQ N3Y (TLYPNAKEFNPRSFSQ) | 0 | – | – |
| TLNPNAKEFNPRSFSQ N5A (TLNPAAKEFNPRSFSQ) | – | 0.004479 | – |
| TLNPNAKEFNPRSFSQ N5D (TLNPDAKEFNPRSFSQ) | – | 0.00392 | – |
| TLNPNAKEFNPRSFSQ N5E (TLNPEAKEFNPRSFSQ) | – | 3.906e-5 | – |
| TLNPNAKEFNPRSFSQ N5F (TLNPFAKEFNPRSFSQ) | – | 0.006389 | – |
| TLNPNAKEFNPRSFSQ N5G (TLNPGAKEFNPRSFSQ) | – | 0.01384 | – |
| TLNPNAKEFNPRSFSQ N5H (TLNPHAKEFNPRSFSQ) | – | 0.04051 | – |
| TLNPNAKEFNPRSFSQ N5I (TLNPIAKEFNPRSFSQ) | – | 0.01004 | – |
| TLNPNAKEFNPRSFSQ N5K (TLNPKAKEFNPRSFSQ) | – | 0.01257 | – |
| TLNPNAKEFNPRSFSQ N5L (TLNPLAKEFNPRSFSQ) | – | 0.06159 | – |
| TLNPNAKEFNPRSFSQ N5M (TLNPMAKEFNPRSFSQ) | – | 0.7094 | – |
| TLNPNAKEFNPRSFSQ N5P (TLNPPAKEFNPRSFSQ) | – | 8.238e-5 | – |
| TLNPNAKEFNPRSFSQ N5Q (TLNPQAKEFNPRSFSQ) | – | 0.004159 | – |
| TLNPNAKEFNPRSFSQ N5R (TLNPRAKEFNPRSFSQ) | – | 0.004201 | – |
| TLNPNAKEFNPRSFSQ N5S (TLNPSAKEFNPRSFSQ) | – | 0.00244 | – |
| TLNPNAKEFNPRSFSQ N5T (TLNPTAKEFNPRSFSQ) | – | 0.0193 | – |
| TLNPNAKEFNPRSFSQ N5V (TLNPVAKEFNPRSFSQ) | – | 0.09342 | – |
| TLNPNAKEFNPRSFSQ N5W (TLNPWAKEFNPRSFSQ) | – | 0.001259 | – |
| TLNPNAKEFNPRSFSQ N5Y (TLNPYAKEFNPRSFSQ) | – | 0.002973 | – |

| Sequence | DMS-derived PSSM value, position N3 | DMS-derived PSSM value, position N5 | DMS-derived PSSM value, position N10 |
| --- | --- | --- | --- |
| TLNPNAKEFNPRSFSQ N10A (TLNPNAKEFAPRSFSQ) | – | – | 0.03895 |
| TLNPNAKEFNPRSFSQ N10D (TLNPNAKEFDPRSFSQ) | – | – | 0.08868 |
| TLNPNAKEFNPRSFSQ N10E (TLNPNAKEFEPRSFSQ) | – | – | 0.00197 |
| TLNPNAKEFNPRSFSQ N10F (TLNPNAKEFFPRSFSQ) | – | – | 0.002727 |
| TLNPNAKEFNPRSFSQ N10G (TLNPNAKEFGPRSFSQ) | – | – | 0.01946 |
| TLNPNAKEFNPRSFSQ N10H (TLNPNAKEFHPRSFSQ) | – | – | 0.0229 |
| TLNPNAKEFNPRSFSQ N10I (TLNPNAKEFIPRSFSQ) | – | – | 0.00743 |
| TLNPNAKEFNPRSFSQ N10K (TLNPNAKEFKPRSFSQ) | – | – | 0.01052 |
| TLNPNAKEFNPRSFSQ N10L (TLNPNAKEFLPRSFSQ) | – | – | 0.1974 |
| TLNPNAKEFNPRSFSQ N10M (TLNPNAKEFMPRSFSQ) | – | – | 0.1 |
| TLNPNAKEFNPRSFSQ N10P (TLNPNAKEFPPRSFSQ) | – | – | 0.06147 |
| TLNPNAKEFNPRSFSQ N10Q (TLNPNAKEFQPRSFSQ) | – | – | 0.09458 |
| TLNPNAKEFNPRSFSQ N10R (TLNPNAKEFRPRSFSQ) | – | – | 0.03785 |
| TLNPNAKEFNPRSFSQ N10S (TLNPNAKEFSPRSFSQ) | – | – | 0.03126 |
| TLNPNAKEFNPRSFSQ N10T (TLNPNAKEFTPRSFSQ) | – | – | 0.03853 |
| TLNPNAKEFNPRSFSQ N10V (TLNPNAKEFVPRSFSQ) | – | – | 0.0007642 |
| TLNPNAKEFNPRSFSQ N10W (TLNPNAKEFWPRSFSQ) | – | – | 0.06015 |
| TLNPNAKEFNPRSFSQ N10Y (TLNPNAKEFYPRSFSQ) | – | – | 0.09858 |

Same assay, conditions: DMS-BM library, bait PABPC1 PABC, prey ATXN2, peptide TLNPNAKEFNPRSFSQ; P = wild type, row aa = residue at this position

| Sequence | DMS-derived PSSM value, position P4 | DMS-derived PSSM value, position P11 |
| --- | --- | --- |
| TLNPNAKEFNPRSFSQ P4A (TLNANAKEFNPRSFSQ) | 0.02051 | – |
| TLNPNAKEFNPRSFSQ P4D (TLNDNAKEFNPRSFSQ) | 0 | – |
| TLNPNAKEFNPRSFSQ P4E (TLNENAKEFNPRSFSQ) | 0.001688 | – |
| TLNPNAKEFNPRSFSQ P4F (TLNFNAKEFNPRSFSQ) | 0.01173 | – |
| TLNPNAKEFNPRSFSQ P4G (TLNGNAKEFNPRSFSQ) | 0.0005247 | – |
| TLNPNAKEFNPRSFSQ P4H (TLNHNAKEFNPRSFSQ) | 0.0297 | – |
| TLNPNAKEFNPRSFSQ P4I (TLNINAKEFNPRSFSQ) | 0.2422 | – |
| TLNPNAKEFNPRSFSQ P4K (TLNKNAKEFNPRSFSQ) | 0 | – |
| TLNPNAKEFNPRSFSQ P4L (TLNLNAKEFNPRSFSQ) | 0.05708 | – |
| TLNPNAKEFNPRSFSQ P4M (TLNMNAKEFNPRSFSQ) | 0.001164 | – |
| TLNPNAKEFNPRSFSQ P4N (TLNNNAKEFNPRSFSQ) | 0.001049 | – |
| TLNPNAKEFNPRSFSQ P4Q (TLNQNAKEFNPRSFSQ) | 0.03549 | – |
| TLNPNAKEFNPRSFSQ P4R (TLNRNAKEFNPRSFSQ) | 0 | – |
| TLNPNAKEFNPRSFSQ P4S (TLNSNAKEFNPRSFSQ) | 0.01574 | – |
| TLNPNAKEFNPRSFSQ P4T (TLNTNAKEFNPRSFSQ) | 0.02934 | – |
| TLNPNAKEFNPRSFSQ P4V (TLNVNAKEFNPRSFSQ) | 0.4281 | – |
| TLNPNAKEFNPRSFSQ P4W (TLNWNAKEFNPRSFSQ) | 0 | – |
| TLNPNAKEFNPRSFSQ P4Y (TLNYNAKEFNPRSFSQ) | 0 | – |

| Sequence | DMS-derived PSSM value, position P4 | DMS-derived PSSM value, position P11 |
| --- | --- | --- |
| TLNPNAKEFNPRSFSQ P11A (TLNPNAKEFNARSFSQ) | – | 0.0003099 |
| TLNPNAKEFNPRSFSQ P11D (TLNPNAKEFNDRSFSQ) | – | 0.005508 |
| TLNPNAKEFNPRSFSQ P11E (TLNPNAKEFNERSFSQ) | – | 0.0006031 |
| TLNPNAKEFNPRSFSQ P11F (TLNPNAKEFNFRSFSQ) | – | 0.1255 |
| TLNPNAKEFNPRSFSQ P11G (TLNPNAKEFNGRSFSQ) | – | 0.04287 |
| TLNPNAKEFNPRSFSQ P11H (TLNPNAKEFNHRSFSQ) | – | 0.157 |
| TLNPNAKEFNPRSFSQ P11I (TLNPNAKEFNIRSFSQ) | – | 0.0006115 |
| TLNPNAKEFNPRSFSQ P11K (TLNPNAKEFNKRSFSQ) | – | 0 |
| TLNPNAKEFNPRSFSQ P11L (TLNPNAKEFNLRSFSQ) | – | 0.02416 |
| TLNPNAKEFNPRSFSQ P11M (TLNPNAKEFNMRSFSQ) | – | 0.01106 |
| TLNPNAKEFNPRSFSQ P11N (TLNPNAKEFNNRSFSQ) | – | 0.04264 |
| TLNPNAKEFNPRSFSQ P11Q (TLNPNAKEFNQRSFSQ) | – | 0.01526 |
| TLNPNAKEFNPRSFSQ P11R (TLNPNAKEFNRRSFSQ) | – | 0.006355 |
| TLNPNAKEFNPRSFSQ P11S (TLNPNAKEFNSRSFSQ) | – | 0.03014 |
| TLNPNAKEFNPRSFSQ P11T (TLNPNAKEFNTRSFSQ) | – | 0.2817 |
| TLNPNAKEFNPRSFSQ P11V (TLNPNAKEFNVRSFSQ) | – | 0.1131 |
| TLNPNAKEFNPRSFSQ P11W (TLNPNAKEFNWRSFSQ) | – | 0.02291 |

Source: publication PMC12102759 (Protein Science : A Publication of the Protein Society, 2025)
